Where “and” joins values, the source holds several entries; their conditions need not be identical. Equal values may be shown once.
System: NCI-H929 complex spheroids, viability % test/control
Assay: Anticancer human tumor NCI-H929 cell line growth inhibition [RAS];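 also: compound exposure lasted seven days before viability was read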;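 as to viability, T/C: 100% = DMSO vehicle control viability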
Conditions: for viability, T/C: stronger effect = lower value
In short: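 Multi-cell-type spheroids: tumor cells plus HUVEC endothelial cells and mesenchymal stem cells. RAS-pathway inhibitors were combined with targeted agents, each dosed in half-log steps down from clinical Cmax, or from 10 microM when Cmax was unknown.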

[1] = curve of first compound, second compound 0.000949 µM
[2] = curve of first compound, second compound 0.003 µM
[3] = curve of first compound, second compound 0.00949 µM
[4] = curve of first compound, second compound 0.03 µM
[5] = curve of first compound, second compound 0.0949 µM
[6] = curve of first compound, second compound 0.3 µM
[7] = second compound 0.000949 µM, first compound 0.0316 µM
[8] = second compound 0.000949 µM, first compound 0.1 µM
[9] = second compound 0.000949 µM, first compound 0.316 µM
[10] = second compound 0.000949 µM, first compound 1 µM
[11] = second compound 0.003 µM, first compound 0.0316 µM
[12] = second compound 0.003 µM, first compound 0.1 µM
[13] = second compound 0.003 µM, first compound 0.316 µM
[14] = second compound 0.003 µM, first compound 1 µM
[15] = second compound 0.00949 µM, first compound 0.0316 µM
[16] = second compound 0.00949 µM, first compound 0.1 µM
[17] = second compound 0.00949 µM, first compound 0.316 µM
[18] = second compound 0.00949 µM, first compound 1 µM
[19] = second compound 0.03 µM, first compound 0.0316 µM
[20] = second compound 0.03 µM, first compound 0.1 µM
[21] = second compound 0.03 µM, first compound 0.316 µM
[22] = second compound 0.03 µM, first compound 1 µM
[23] = second compound 0.0949 µM, first compound 0.0316 µM
[24] = second compound 0.0949 µM, first compound 0.1 µM
[25] = second compound 0.0949 µM, first compound 0.316 µM
[26] = second compound 0.0949 µM, first compound 1 µM
[27] = second compound 0.3 µM, first compound 0.0316 µM
[28] = second compound 0.3 µM, first compound 0.1 µM
[29] = second compound 0.3 µM, first compound 0.316 µM
[30] = second compound 0.3 µM, first compound 1 µM

`Cc1nc(N2CCC3(CC2)COC(C)C3N)c(CO)nc1Sc1ccnc(N)c1Cl` (stereo not drawn) + C=CC(=O)N1CCN(c2nc(OCC3CCCN3C)nc3c(F)c(-c4nc(N)cc(C)c4C(F)(F)F)c(Cl)cc23)C(C)C1 was tested, and the IC50 (curve of first compound, second compound 0.00316 µM) was over 10000 nM, the IC50 (curve of first compound, second compound 0.01 µM) was over 10000 nM and the IC50 (curve of first compound, second compound 0.0316 µM) was over 10000 nM. The IC50 (curve of first compound, second compound 0.1 µM) was over 10000 nM, the IC50 (curve of first compound, second compound 0.316 µM) was over 10000 nM and the IC50 (curve of first compound, second compound 1 µM) was over 10000 nM. It also gave a viability, T/C (second compound 0.00316 µM, first compound 0.0316 µM) of 97.9%, a viability, T/C (second compound 0.00316 µM, first compound 0.1 µM) of 94.5% and a viability, T/C (second compound 0.00316 µM, first compound 0.316 µM) of 97.1%. It also gave a viability, T/C (second compound 0.00316 µM, first compound 1 µM) of 94.4%, a viability, T/C (second compound 0.00316 µM, first compound 3.16 µM) of 101% and a viability, T/C (second compound 0.00316 µM, first compound 10 µM) of 98.3%. For the same compound, the viability, T/C (second compound 0.01 µM, first compound 0.0316 µM) was 95.8%, the viability, T/C (second compound 0.01 µM, first compound 0.1 µM) was 96% and the viability, T/C (second compound 0.01 µM, first compound 0.316 µM) was 99.8%. The viability, T/C (second compound 0.01 µM, first compound 1 µM) was 96.5%, the viability, T/C (second compound 0.01 µM, first compound 3.16 µM) was 101% and the viability, T/C (second compound 0.01 µM, first compound 10 µM) was 102%. It also gave a viability, T/C (second compound 0.0316 µM, first compound 0.0316 µM) of 95.7%, a viability, T/C (second compound 0.0316 µM, first compound 0.1 µM) of 102% and a viability, T/C (second compound 0.0316 µM, first compound 0.316 µM) of 100%. It also gave a viability, T/C (second compound 0.0316 µM, first compound 1 µM) of 99.3%, a viability, T/C (second compound 0.0316 µM, first compound 3.16 µM) of 102% and a viability, T/C (second compound 0.0316 µM, first compound 10 µM) of 102%. For the same compound, the viability, T/C (second compound 0.1 µM, first compound 0.0316 µM) was 95.6%, the viability, T/C (second compound 0.1 µM, first compound 0.1 µM) was 101% and the viability, T/C (second compound 0.1 µM, first compound 0.316 µM) was 100%. The viability, T/C (second compound 0.1 µM, first compound 1 µM) was 102%, the viability, T/C (second compound 0.1 µM, first compound 3.16 µM) was 104% and the viability, T/C (second compound 0.1 µM, first compound 10 µM) was 99.7%. For the same compound, the viability, T/C (second compound 0.316 µM, first compound 0.0316 µM) was 101%, the viability, T/C (second compound 0.316 µM, first compound 0.1 µM) was 101% and the viability, T/C (second compound 0.316 µM, first compound 0.316 µM) was 103%. The viability, T/C (second compound 0.316 µM, first compound 1 µM) was 100%, the viability, T/C (second compound 0.316 µM, first compound 3.16 µM) was 102% and the viability, T/C (second compound 0.316 µM, first compound 10 µM) was 104%. It also gave a viability, T/C (second compound 1 µM, first compound 0.0316 µM) of 104%, a viability, T/C (second compound 1 µM, first compound 0.1 µM) of 105% and a viability, T/C (second compound 1 µM, first compound 0.316 µM) of 105%. It also gave a viability, T/C (second compound 1 µM, first compound 1 µM) of 105%, a viability, T/C (second compound 1 µM, first compound 3.16 µM) of 109% and a viability, T/C (second compound 1 µM, first compound 10 µM) of 103%.
For `CC(=O)OC12COC1CC(O)C1(C)C(=O)C(O)C3=C(C)C(OC(=O)C(O)C(NC(=O)OC(C)(C)C)c4ccccc4)CC(O)(C(OC(=O)c4ccccc4)C21)C3(C)C` (stereo not drawn), the viability, T/C (compound 0.0316 µM) was 1.05% [middle of 4 runs], the viability, T/C (compound 0.1 µM) was 1.29% [middle of 4 runs] and the viability, T/C (compound 0.316 µM) was 1.47% [middle of 4 runs]. The viability, T/C (compound 1 µM) was 1.41% [middle of 4 runs], the viability, T/C (compound 3.16 µM) was 1.6% [middle of 4 runs] and the viability, T/C (compound 10 µM) was 0.8% [middle of 4 runs]. For the same compound, the IC50 (curve of compound) was under 31.6 nM.
`CC1(O)CCCC1n1c(=O)c(C(F)F)cc2cnc(NC3CCN(S(C)(=O)=O)CC3)nc21` (stereo not drawn) + CCn1c(-c2cc(N3CCN(C)CC3)cnc2C(C)OC)c2c3cc(ccc31)-c1csc(n1)CC(NC(=O)C1CC1C)C(=O)N1CCCC(N1)C(=O)OCC(C)(C)C2 was tested, and the IC50 [1] was 188 nM, the IC50 [2] was 191 nM and the IC50 [3] was 200 nM. It also gave an IC50 [4] of 57.5 nM, an IC50 [5] of under 31.6 nM and an IC50 [6] of under 31.6 nM. The viability, T/C [7] was 109%, the viability, T/C [8] was 106% and the viability, T/C [9] was 3.79%. The viability, T/C [10] was 4.11%, the viability, T/C (second compound 0.000949 µM, first compound 3.16 µM) was 3.8% and the viability, T/C (second compound 0.000949 µM, first compound 10 µM) was 0.15%. For the same compound, the viability, T/C [11] was 103%, the viability, T/C [12] was 115% and the viability, T/C [13] was 2.16%. For the same compound, the viability, T/C [14] was 7.09%, the viability, T/C (second compound 0.003 µM, first compound 3.16 µM) was 7.23% and the viability, T/C (second compound 0.003 µM, first compound 10 µM) was 0.06%. The viability, T/C [15] was 113%, the viability, T/C [16] was 117% and the viability, T/C [17] was 4.34%. It also gave a viability, T/C [18] of 14.1%, a viability, T/C (second compound 0.00949 µM, first compound 3.16 µM) of 8.7% and a viability, T/C (second compound 0.00949 µM, first compound 10 µM) of 0.05%. The viability, T/C [19] was 72.2%, the viability, T/C [20] was 29.5% and the viability, T/C [21] was 4.66%. It also gave a viability, T/C [22] of 9.27%, a viability, T/C (second compound 0.03 µM, first compound 3.16 µM) of 2.06% and a viability, T/C (second compound 0.03 µM, first compound 10 µM) of 0.13%. For the same compound, the viability, T/C [23] was 6.97%, the viability, T/C [24] was 4.65% and the viability, T/C [25] was 3.2%. The viability, T/C [26] was 2.92%, the viability, T/C (second compound 0.0949 µM, first compound 3.16 µM) was 0.85% and the viability, T/C (second compound 0.0949 µM, first compound 10 µM) was 0.09%. For the same compound, the viability, T/C [27] was 3.5%, the viability, T/C [28] was 2.32% and the viability, T/C [29] was 2.57%. The viability, T/C [30] was 1.68%, the viability, T/C (second compound 0.3 µM, first compound 3.16 µM) was 0.72% and the viability, T/C (second compound 0.3 µM, first compound 10 µM) was 8.23%.
In the case of `O=C(c1ccc(F)c(F)c1Nc1ccc(I)cc1F)N1CC(O)([C@@H]2CCCCN2)C1`, the viability, T/C (compound 0.00316 µM) is reported as 105% [middle of 4 runs], the viability, T/C (compound 0.01 µM) is reported as 95.4% [middle of 4 runs] and the viability, T/C (compound 0.1 µM) is reported as 96.1% [middle of 4 runs]. The viability, T/C (compound 0.316 µM) was 115% [middle of 4 runs] and the IC50 (curve of compound) was > 1000 nM and 672 nM and 724 nM.
Compound `Nc1ccn(C2OC(CO)C(O)C2(F)F)c(=O)n1` (stereo not drawn) + CCn1c(-c2cc(N3CCN(C)CC3)cnc2C(C)OC)c2c3cc(ccc31)-c1csc(n1)CC(NC(=O)C1CC1C)C(=O)N1CCCC(N1)C(=O)OCC(C)(C)C2 has an IC50 [1] of 7.3 nM, an IC50 [2] of 6.69 nM and an IC50 [3] of 6.61 nM. It also gave an IC50 [4] of under 3.16 nM, an IC50 [5] of under 3.16 nM and an IC50 [6] of under 3.16 nM. For the same compound, the viability, T/C (second compound 0.000949 µM, first compound 0.00316 µM) was 110%, the viability, T/C (second compound 0.000949 µM, first compound 0.01 µM) was 27.6% and the viability, T/C [7] was 2.05%. For the same compound, the viability, T/C [8] was 2.16%, the viability, T/C [9] was 1.6% and the viability, T/C [10] was 1.6%. For the same compound, the viability, T/C (second compound 0.003 µM, first compound 0.00316 µM) was 105%, the viability, T/C (second compound 0.003 µM, first compound 0.01 µM) was 20.4% and the viability, T/C [11] was 2.07%. For the same compound, the viability, T/C [12] was 1.75%, the viability, T/C [13] was 1.35% and the viability, T/C [14] was 1.62%. For the same compound, the viability, T/C (second compound 0.00949 µM, first compound 0.00316 µM) was 127%, the viability, T/C (second compound 0.00949 µM, first compound 0.01 µM) was 6.62% and the viability, T/C [15] was 1.99%. It also gave a viability, T/C [16] of 2.73%, a viability, T/C [17] of 1.58% and a viability, T/C [18] of 1.35%. It also gave a viability, T/C (second compound 0.03 µM, first compound 0.00316 µM) of 15.2%, a viability, T/C (second compound 0.03 µM, first compound 0.01 µM) of 3.12% and a viability, T/C [19] of 1.8%. For the same compound, the viability, T/C [20] was 1.5%, the viability, T/C [21] was 1.42% and the viability, T/C [22] was 1.24%. For the same compound, the viability, T/C (second compound 0.0949 µM, first compound 0.00316 µM) was 2.68%, the viability, T/C (second compound 0.0949 µM, first compound 0.01 µM) was 1.67% and the viability, T/C [23] was 1.66%. It also gave a viability, T/C [24] of 1.4%, a viability, T/C [25] of 1.18% and a viability, T/C [26] of 1.05%. For the same compound, the viability, T/C (second compound 0.3 µM, first compound 0.00316 µM) was 1.41%, the viability, T/C (second compound 0.3 µM, first compound 0.01 µM) was 1.1% and the viability, T/C [27] was 1.1%. For the same compound, the viability, T/C [28] was 1.32%, the viability, T/C [29] was 1.02% and the viability, T/C [30] was 0.86%.
